The target of data set [1] is T1, Macrophage migration inhibitory factor (Homo sapiens) (UniProt P14174).
T1 sequence (whole entry): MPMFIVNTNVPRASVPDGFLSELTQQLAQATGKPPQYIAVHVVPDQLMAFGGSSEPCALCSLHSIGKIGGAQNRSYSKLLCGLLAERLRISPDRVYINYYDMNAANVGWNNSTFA
The experiment in a line: Inhibition of human purified MIF tautomerase activity at 100 uM after 30 mins.

Data set [2] addresses T1, Macrophage migration inhibitory factor (Homo sapiens). The experiment in a line: Inhibition of MIF in human PBMC assessed as MIF secretion at 100 uM after 5 hrs by ELISA.
Data set [3] has the same target. The experiment in a line: Inhibition of human purified MIF tautomerase activity at 10 uM after 30 mins.
Data set [4] shares this target. As to the kind of experiment: Inhibition of MIF in human PBMC assessed as MIF secretion at 10 uM after 5 hrs by ELISA.
The test system of data set [5] is PBMC. As to the kind of experiment: Antiinflammatory activity in human PBMC assessed as inhibition of MIF-induced IL1-beta production at 100 uM after 21 hrs by ELISA. It is filed as functional.
A short description of data set [6]: Cytotoxicity against human PBMC assessed as cell viability measured during cytokines production assay at 100 uM after 21 hrs by MTS assay. The format is cell-based. The settings on record: PBMC (peripheral blood mononuclear cells).
Data set [7] has as its system PBMC. As to the kind of experiment: Antiinflammatory activity in human PBMC assessed as inhibition of MIF-induced IL-6 production at 100 uM after 21 hrs by ELISA. It is filed as functional.
Data set [8] in a line: Cytotoxicity against human PBMC assessed as cell viability measured during MIF secretion assay at 100 uM after 21 hrs by MTS assay. It is filed as cell-based. The settings on record: PBMC (peripheral blood mononuclear cells).
Data set [9] concerns PBMC. The experiment in a line: Antiinflammatory activity in human PBMC assessed as inhibition of MIF-induced TNFalpha production at 100 uM after 21 hrs by ELISA. It is filed as functional.
The test system of data set [10] is PBMC. As to the kind of experiment: Antiinflammatory activity in human PBMC assessed as inhibition of MIF-induced IL-6 production at 30 uM after 21 hrs by ELISA. The format is functional.

As to `Fc1ccc(C2CC(c3cn(-c4cccc(C(F)(F)F)c4)c4ccccc34)=NO2)cc1` (stereo not given), the inhibition was found to be 100% in data set [1], 0% in data set [2], 55% in data set [3] and 0% in [4]. Further, the inhibition at 100 µM worked out at 0% in the data set on PBMC [5], 4% with PBMC [7] and 0% in the data set on PBMC [9]. In addition, the cytotoxicity at 21 h, 100 µM in data set [6] came to 1%; in [8] it was 0%. In the data set with PBMC [10], the inhibition at 30 µM was determined as 0%.
Take `FC(F)(F)c1cccc(-n2cc(C3=NOC(c4ccccc4)C3)c3ccccc32)c1` (stereo not given): the inhibition in data set [1] is 71%; in data set [2], 2%; in [3], 6%; in data set [4], 11%. In addition, the inhibition at 100 µM was 12% in the data set on PBMC [5], 9% in the data set with PBMC [7] and 0% in the data set on PBMC [9]. Also, the cytotoxicity at 21 h, 100 µM came out at 8% in [6] and 0% in data set [8]. In addition, the inhibition at 30 µM with PBMC [10] is 18%.
Take `CC(C)(C)C(=O)OC1CC(c2ccoc2)=NO1` (stereo not given): the inhibition came out at 30% in data set [1], 86% in [2], 13% in data set [3] and 40% in data set [4]. For the same compound, the inhibition at 100 µM in the data set on PBMC [5] was determined as 6%; in the data set on PBMC [7] it was 1%; with PBMC [9] it was 0%. Further, the results for the cytotoxicity at 21 h, 100 µM in [6] and in data set [8] were 8% and 0%, respectively. Moreover, the inhibition at 30 µM in the data set on PBMC [10] was found to be 3%.
`FC(F)(F)c1ccc(C2CC(c3cn(-c4cccc(C(F)(F)F)c4)c4ccccc34)=NO2)cc1` (stereo not given): the inhibition in data set [1] is 51%; in [2], 5%; in data set [3] it was 4%; in data set [4] it was 20%. The inhibition at 100 µM was determined as 15% with PBMC [5], 6% in the data set with PBMC [7] and 2% in the data set with PBMC [9]. The cytotoxicity at 21 h, 100 µM in [6] was 6%; in data set [8], 0%. Also, the inhibition at 30 µM in the data set on PBMC [10] stood at 3%.
For `COC(=O)C1(C)CC(c2cn(-c3cccc(C(F)(F)F)c3)c3ccccc23)=NO1` (stereo not given), the inhibition in data set [1] stood at 66%; in data set [2], 0%; in data set [3], 13%; in [4], 4%. Also, the inhibition at 100 µM in the data set on PBMC [5] was 89%; with PBMC [7] it was 65%; in the data set with PBMC [9], 81%. Besides, the cytotoxicity at 21 h, 100 µM in data set [6] turned out to be 2%; in data set [8] it was 5%. In addition, in the data set with PBMC [10], the inhibition at 30 µM is 25%.
Regarding `O=C1CCCN1C1CC(c2cn(-c3cccc(C(F)(F)F)c3)c3ccccc23)=NO1` (stereo not given), the inhibition in data set [1] was 10%; in data set [2] it was 0%; in data set [3], 1%; in data set [4] it was 0%. The inhibition at 100 µM in the data set on PBMC [5] stood at 68%; in the data set on PBMC [7], 52%; in the data set with PBMC [9], 68%. Moreover, the cytotoxicity at 21 h, 100 µM was 16% in data set [6] and 15% in data set [8]. In addition, in the data set with PBMC [10], the inhibition at 30 µM amounted to 25%.
Turning to `c1ccc2c(c1)ccn2CC1CC(c2ccoc2)=NO1` (stereo not given), the inhibition turned out to be 100% in data set [1], 95% in data set [2], 26% in [3] and 68% in data set [4]. For the same compound, the inhibition at 100 µM came out at 19% with PBMC [5], 6% in the data set on PBMC [7] and 30% in the data set with PBMC [9]. Also, the cytotoxicity at 21 h, 100 µM in [6] came to 6%; in data set [8], 0%. Besides, in the data set on PBMC [10], the inhibition at 30 µM is 0%.
Take `c1cc(C2=NOC(CN3CCOCC3)C2)co1` (stereo not given): the inhibition in data set [1] amounted to 56%; in data set [2], 78%; in data set [3] it was 20%; in [4] it was 44%. For the same compound, the inhibition at 100 µM in the data set with PBMC [5] came out at 32%; in the data set with PBMC [7], 49%; with PBMC [9], 0%. Further, the cytotoxicity at 21 h, 100 µM in data set [6] is 6%; in data set [8] it was 0%. In the data set with PBMC [10], the inhibition at 30 µM came out at 39%.
In the case of `FC(F)(F)c1ccc(C2CC(c3ccoc3)=NO2)cc1` (stereo not given), the inhibition was determined as 41% in data set [1], 60% in data set [2], 15% in [3] and 31% in [4]. For the same compound, the inhibition at 100 µM worked out at 67% in the data set with PBMC [5], 50% in the data set on PBMC [7] and 76% in the data set with PBMC [9]. The cytotoxicity at 21 h, 100 µM in [6] turned out to be 17%; in [8], 9%. Moreover, the inhibition at 30 µM in the data set on PBMC [10] amounted to 23%.
In the case of `CC(C)(C)C(=O)OC1CC(c2cn(-c3cccc(C(F)(F)F)c3)c3ccccc23)=NO1` (stereo not given), the inhibition in data set [1] came out at 100%; in data set [2], 5%; in data set [3] it was 15%; in data set [4] it was 0%. Moreover, the inhibition at 100 µM with PBMC [5] came to 15%; with PBMC [7], 12%; with PBMC [9], 0%. Besides, the values for the cytotoxicity at 21 h, 100 µM in [6] and in data set [8] were 15% and 0%, respectively. The inhibition at 30 µM with PBMC [10] was determined as 10%.
As for `FC(F)(F)c1cccc(-n2cc(C3=NOC(Cn4ccc5ccccc54)C3)c3ccccc32)c1` (stereo not given), the inhibition in data set [1] is 100%; in data set [2] it was 8%; in data set [3], 18%; in data set [4], 0%. Besides, the inhibition at 100 µM in the data set with PBMC [5] amounted to 44%; in the data set with PBMC [7] it was 17%; with PBMC [9], 30%. Besides, the values for the cytotoxicity at 21 h, 100 µM in data set [6] and in data set [8] were 16% and 0%, respectively. Moreover, in the data set on PBMC [10], the inhibition at 30 µM is 15%.

Values taken from ChEMBL document CHEMBL1681642, “Synthesis and biological activity of novel MIF antagonists” (Bioorg Med Chem Lett, 2011).
